These results are taken from PubChem BioAssay (NCI).

Test systems include K-562 leukemia; DU-145 prostate; HT29 colon; HCT-15 colon; MDA-MB-435; IGROV1 ovarian; 786-0 renal; ACHN renal; M14 melanoma; SK-MEL-2 melanoma; HOP-62 NSCLC; SF-539 CNS; BT-549 breast; MALME-3M melanoma.
What all share (test): DTP human tumour cell line panel, 48 h

Molecules are shown by their SMILES.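 Exposure lasted 48 hours, with cells grown in 96-well plates and compounds tested at five concentrations. TGI denotes the concentration required for complete inhibition of growth.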 Some results are limits rather than exact numbers.

For orientation: TGI means the concentration giving total growth inhibition.

With `CC1CCCOc2ccc(cc2)C=Nc2ccc(cc2)CCc2ccc(cc2)N=Cc2ccc(cc2)OCCC1` (stereo not given), the TGI in the experiment with K-562 leukemia, with DU-145 prostate, in the experiment on HT29 colon, in the experiment with HCT-15 colon, in the experiment with MDA-MB-435 and with IGROV1 ovarian was more than 100 µM throughout. Besides, the concentration for total growth inhibition (TGI) in the experiment with 786-0 renal, with ACHN renal, with M14 melanoma, with SK-MEL-2 melanoma, in the experiment with HOP-62 NSCLC and in the experiment with SF-539 CNS was more than 100 µM throughout. The TGI in the experiment on BT-549 breast and in the experiment on MALME-3M melanoma was more than 100 µM in each case.

As for `COC(=O)c1cc(Br)c(C(=O)C(Cl)(Cl)Cl)[nH]1`, the TGI in the experiment with K-562 leukemia, in the experiment with DU-145 prostate, in the experiment with HT29 colon, in the experiment on HCT-15 colon, in the experiment on MDA-MB-435 and in the experiment on IGROV1 ovarian was more than 100 µM in each case. Also, the TGI in the experiment on 786-0 renal, with ACHN renal, in the experiment on M14 melanoma, in the experiment with SK-MEL-2 melanoma, in the experiment with HOP-62 NSCLC and in the experiment on SF-539 CNS was more than 100 µM throughout. The total growth inhibition concentration (TGI) in the experiment on BT-549 breast and with MALME-3M melanoma was more than 100 µM in each case.

In the case of `CCCCCCNC(=O)c1cc(NCc2cc(OC)ccc2OC)ccc1O`, the concentration for total growth inhibition (TGI) was 47.3 µM with K-562 leukemia; more than 100 µM in the experiment with DU-145 prostate; 85.2 µM with HT29 colon; 57.3 µM in the experiment with HCT-15 colon; 44.8 µM in the experiment on MDA-MB-435; 55 µM in the experiment with IGROV1 ovarian. The TGI with 786-0 renal is 75 µM; with ACHN renal it was more than 100 µM; in the experiment on M14 melanoma, 38.4 µM; with SK-MEL-2 melanoma it was 45.8 µM; with SF-539 CNS it was 36.3 µM; with BT-549 breast, 33.4 µM. The TGI in the experiment on MALME-3M melanoma came to 55.9 µM.

Take `COc1cc(CC2CCc3nc(N)nc(N)c3C2)cc(OC)c1OC` (stereo not given): the concentration for total growth inhibition (TGI) with K-562 leukemia was more than 100 µM; in the experiment with HT29 colon it was more than 100 µM; in the experiment on HCT-15 colon, more than 100 µM; in the experiment with MDA-MB-435 it was more than 100 µM; with IGROV1 ovarian, 98.2 µM; in the experiment on ACHN renal, more than 45.6 µM. Also, the total growth inhibition concentration (TGI) in the experiment with M14 melanoma is 28.7 µM; with SK-MEL-2 melanoma, more than 56.6 µM; in the experiment on HOP-62 NSCLC, 69.7 µM; with SF-539 CNS, more than 60.4 µM; in the experiment with BT-549 breast it was more than 100 µM; in the experiment on MALME-3M melanoma, 28.4 µM.

As for `COC(=O)c1cc(NC2OCC(OC(C)=O)C(OC(C)=O)C2OC(C)=O)nc(SC)c1C(=O)OC` (stereo not given), the TGI in the experiment with DU-145 prostate, in the experiment with HT29 colon, with HCT-15 colon, in the experiment with MDA-MB-435, in the experiment with IGROV1 ovarian and in the experiment with 786-0 renal was more than 100 µM in each case. In addition, the TGI in the experiment on ACHN renal, in the experiment on M14 melanoma, in the experiment with SK-MEL-2 melanoma, in the experiment with HOP-62 NSCLC, in the experiment with SF-539 CNS and in the experiment on BT-549 breast was more than 100 µM throughout.

As to `COc1ccc(C2Oc3c(cccc3OC)C=C2[N+](=O)[O-])cc1OC` (stereo not given), the concentration for total growth inhibition (TGI) with K-562 leukemia is more than 100 µM; with DU-145 prostate, more than 100 µM; with HT29 colon it was more than 100 µM; with HCT-15 colon, 24 µM; with MDA-MB-435, 8.3 µM; with IGROV1 ovarian, 24.7 µM. For the same compound, the concentration for total growth inhibition (TGI) was 19.7 µM in the experiment with 786-0 renal; 29.3 µM in the experiment on ACHN renal; 19.6 µM in the experiment with M14 melanoma; more than 100 µM in the experiment with HOP-62 NSCLC; 31 µM with BT-549 breast; 38.7 µM with MALME-3M melanoma.

For `CO/C(=N/N1CC1C(F)(F)F)c1ccncc1` (stereo not given), the TGI in the experiment on K-562 leukemia, in the experiment with DU-145 prostate, in the experiment on HT29 colon, in the experiment with HCT-15 colon, in the experiment on MDA-MB-435 and in the experiment on IGROV1 ovarian was more than 100 µM in each case. Besides, the concentration for total growth inhibition (TGI) in the experiment on M14 melanoma, with SK-MEL-2 melanoma, in the experiment on HOP-62 NSCLC, in the experiment on BT-549 breast and in the experiment on MALME-3M melanoma was more than 100 µM throughout.

For `C=C(Cl)C(C)(Cl)CCC(Cl)C(C)(C)Cl` (stereo not given), the concentration for total growth inhibition (TGI) in the experiment with K-562 leukemia, in the experiment with DU-145 prostate, in the experiment on HT29 colon, in the experiment on MDA-MB-435, in the experiment with IGROV1 ovarian and with 786-0 renal was more than 100 µM in each case. Also, the concentration for total growth inhibition (TGI) in the experiment on ACHN renal, in the experiment with M14 melanoma, in the experiment on SK-MEL-2 melanoma, in the experiment with HOP-62 NSCLC, with SF-539 CNS and in the experiment with BT-549 breast was more than 100 µM throughout. This compound returned a total growth inhibition concentration (TGI) in the experiment on MALME-3M melanoma of more than 100 µM.

Turning to `Cc1cc(Cl)nc(NC(=O)CSc2ccc(Cl)cc2)n1`, the TGI in the experiment with K-562 leukemia, with DU-145 prostate, in the experiment with HT29 colon, in the experiment with HCT-15 colon, in the experiment on MDA-MB-435 and in the experiment with IGROV1 ovarian was more than 100 µM each time. The TGI with 786-0 renal, in the experiment with ACHN renal, with M14 melanoma, in the experiment on SK-MEL-2 melanoma, with HOP-62 NSCLC and in the experiment with BT-549 breast was more than 100 µM in each case. The total growth inhibition concentration (TGI) with MALME-3M melanoma was more than 100 µM.

In the case of `CCOC(=O)Cc1ccc(Nc2nc3cc(C(F)(F)F)ccc3nc2C(=O)OCC)cc1`, the concentration for total growth inhibition (TGI) in the experiment with DU-145 prostate, with HT29 colon, in the experiment with HCT-15 colon, in the experiment on MDA-MB-435, with IGROV1 ovarian and in the experiment on 786-0 renal was more than 100 µM throughout. Further, the TGI is more than 100 µM in the experiment on ACHN renal; more than 100 µM in the experiment on M14 melanoma; more than 100 µM with SK-MEL-2 melanoma; more than 100 µM in the experiment with HOP-62 NSCLC; 55.3 µM in the experiment on SF-539 CNS; more than 100 µM with BT-549 breast. The compound also gave a TGI in the experiment with MALME-3M melanoma of more than 100 µM.

As to `CC(C)=CCNc1ncnc2c1ncn2CCC(=O)OC(C)(C)C`, the total growth inhibition concentration (TGI) with K-562 leukemia, in the experiment with DU-145 prostate, with HT29 colon, in the experiment on HCT-15 colon, in the experiment with MDA-MB-435 and in the experiment with IGROV1 ovarian was more than 100 µM each time. Moreover, the TGI in the experiment with 786-0 renal, with ACHN renal, in the experiment with M14 melanoma, in the experiment on HOP-62 NSCLC, with SF-539 CNS and in the experiment with BT-549 breast was more than 100 µM each time. Further, the TGI with MALME-3M melanoma was more than 100 µM.
